{"source": "patent US12121746B2", "about": "“Energy augmentation structures, energy emitters or energy collectors containing the same, and their use in methods and systems for treating cell proliferation disorders” (priority 2019, dated 2024)", "key": {"[1]": {"settings": "cited from earlier work"}, "[2]": {"tested_on": "CT2A (murine malignant glioma)", "experiment": "UV light activated psoralen, Cell-Titer-Glo Luminescence Cell Viability Assay", "format": "cell-based", "settings": "psoralen 40 ρM; UV light 0, 0.25, 0.5, 1.0 J/cm^2; N=4; FIG. 51A", "experimental": "(§1) Metabolic cell viability was also assessed visually using Methylene blue staining and ATP-induced Luminescence imaging (Cell-Titer-Glo® Luminescence Cell Viability Assay). The luminescence imaging permitted investigation of the cytotoxicity of psoralen activated directly with a UV lamp, and in the absence of phosphors and x-ray radiation. […] The psoralen concentration was 40 ρM."}, "KP158B (sarcoma)": {"tested_on": "KP158B (sarcoma)", "experiment": "UV light activated psoralen, Cell-Titer-Glo Luminescence Cell Viability Assay", "format": "cell-based, murine", "settings": "psoralen 40 ρM; UV light 0, 0.25, 0.5, 1.0 J/cm^2; N=4; FIG. 51A", "experimental": "as §1"}, "4T1": {"tested_on": "4T1", "experiment": "UV light activated psoralen, Cell-Titer-Glo Luminescence Cell Viability Assay", "format": "cell-based, murine", "settings": "psoralen 40 ρM; UV light 0, 0.25, 0.5, 1.0 J/cm^2; N=4; FIG. 51A", "experimental": "as §1"}, "[3]": {"tested_on": "syngeneic 4T1-HER2 tumors", "experiment": "In-vivo X-PACT trial on syngeneic tumors", "design": "species or system BALB/c mice", "settings": "treatment arms with x-ray; 5 μM psoralen (AMT), 100 μg of phosphor; FIG. 54", "experimental": "There were 4 arms of the trial: […] […] There were 6-8 mice per arm, and the study was repeated a second time, yielding effective sample sizes of 12-16. […] A consistent x-ray irradiation technique was used for all arms (except saline control) which was 2 Gy delivered at 75 kVp by 30 mA in 3 minutes."}, "4T1-HER2 cells": {"tested_on": "4T1-HER2 cells", "settings": "multi-variable regression on 36 independent irradiation experiments; irradiated", "procedure": "In-vitro X-PACT studies were conducted on cells prepared in the following manner. Cells were incubated in appropriate growing media and buffers before being trypsinized and plated evenly onto twelve (12) well plates for 24 hours. […] The plates were then irradiated with x-rays by placing the plate at a known distance from the x-ray source (e.g., 50 cm). After irradiation the cells were incubated on the plate for 48 hours prior to performing flow cytometry. For compatibility with 96-well Guava Nexin® assay, the remaining cells were again trypsinized (after the 48 hour incubation) and plated onto a 96-well plate. The phosphors used in this evaluation were designated as NP 200 and GTP 4300. […]\nCells plated in 12-well plates, where individual wells in each plate may receive different experimental conditions (e.g. psoralen concentration), but the same x-ray dose (i.e. all wells in a given plate receive the same x-ray dose). The first metric is metabolically viable cell count (or cell viability) determined from the number of whole cells per well as determined using forward scattering (FSC). […] (All wells on a given plate receive the same dose.) The second metric is Annexin V (+) signal, which is the fraction of the metabolically viable cells which expressed a positive Annexin V signal as determined by flow cell cytometry, and include any cells advancing toward early or late apoptotic cell death. […]"}, "[4]": {"settings": "in vivo; cited from earlier work"}}, "note": "Like-named read-outs stand apart in the source and are kept apart here."}
{"compound": "Oc1cccc(-c2c3nc(c(-c4cccc(O)c4)c4ccc([nH]4)c(-c4cccc(O)c4)c4nc(c(-c5cccc(O)c5)c5ccc2[nH]5)CC4)C=C3)c1", "note": "[Foscan, Tetra (m-hydroxyphenyl) chlorin]", "values": [{"measurement": "Length of photosensitization", "setting": "[1]; Table 3", "result": 2, "unit": "weeks"}, {"measurement": "duration of skin photosensitivity", "setting": "[1]", "result": "approximately 2 weeks"}]}
{"compound": "O=c1ccc2cc3ccoc3cc2o1", "note": "[psoralen]", "values": [{"measurement": "viable cells", "setting": "[2]", "result": "reduce viable cells"}, {"measurement": "viable cells", "setting": "KP158B (sarcoma)", "result": "reduce viable cells"}, {"measurement": "viable cells", "setting": "4T1", "result": "reduce viable cells"}, {"measurement": "tumor growth effect", "setting": "[3]", "result": "slightly higher component effect"}, {"measurement": "cytotoxicity (Annexin V signal)", "setting": "4T1-HER2 cells", "result": "neither psoralen nor phosphor alone had a strong effect"}]}
{"compound": "Vitamin B12", "values": [{"measurement": "route of excretion", "setting": "[4]", "result": "excreted by glomerular filtration"}]}
{"compound": "CC(=O)[O-].CC(=O)[O-].CCc1c(CC)c2cc3nc(cnc4cc(OCCOCCOCCOC)c(OCCOCCOCCOC)cc4ncc4nc(cc1[n-]2)C(CCCO)=C4C)C(C)=C3CCCO.O.[Lu+3]", "note": "[Lutetium texahyrin, Motexafin lutetium]", "values": [{"measurement": "Length of photosensitization", "setting": "[1]; in vivo", "result": "24 to 48", "unit": "h"}, {"measurement": "duration of skin photosensitivity", "setting": "[1]; in vivo", "result": "24 to 48", "unit": "h"}]}
